Test system: Balb/c 3T3 mouse fibroblasts
Experiment: 3T3 in vitro phototoxicity assay (Neutral Red uptake)
Type: cell-based
Conditions: for Phototoxicity factor: IC50 without vs with UV-A exposure, cut-off factor >5; for IC50: Mus musculus, BALB/c3T3, light or radiation study, 3T3 fibroblasts, approx. 5 J/cm^2 UVA, Neutral Red uptake
Text: Phototoxicity is defined as a toxic response that is elicited after the first exposure of the skin to certain chemicals and subsequent exposure to light, or that is induced similarly by skin irradiation after systemic administration of a chemical substance. The assay used in this study is designed to detect the phototoxic potential of a chemical by using a simple in vitro cytotoxicity assay with Balb/c 3T3 mouse fibroblasts. The principle of this test is a comparison of the cytotoxicity of a chemical when tested with and without exposure to a non-toxic dose of UVA-light. Cytotoxicity is expressed as a dose dependent reduction of the growth rate of cells as determined by uptake of the vital dye Neutral Red one day after treatment.
A small amount of substance was weighed and formulated freshly in DMSO just before the start of the exposure of the cells. This stock solution or appropriate dilutions with DMSO were added to the cell suspensions to obtain the required final concentrations. All solutions were generally prepared in Eppendorf caps and discarded after use.
• Chlorpromazine (HCL) (Sigma, Batch/Lot No.: 120M1328V), test concentration: 300 μg/mL, Solvent: PBS/3% DMSO
For this study the Neutral Red uptake (NRU) assay of Borenfreund and Puerner (Borenfreund, E, Puerner J A. Toxicity determined in vitro by morphological alterations and Neutral Red absorption. Toxicology Lett. 1985; 24:119-124) modified according to INVITTOX protocol No 78 (ERGATT/FRAME data bank of in vitro techniques in toxicology. INVITTOX PROTOCOL No 78. 3T3 NRU Phototoxicity Assay. March 1994) has been adapted to examine a possible phototoxic potential of the test item. This assay is based on the active uptake of the Neutral Red dye into the lysosomes of cultured murine fibroblasts. Because lysosomal membranes are known to be a site of action of many phototoxic compounds, this assay can provide a measure of potential for phototoxic injury.
A murine fibroblasts clone A 31 (ATCC no. CCL 163—passage No. 108) were cultured in 175 cm^2 tissue culture grade flasks, containing sDMEM (Dulbecco's […] Essential Medium, supplemented with 10% fetal calf serum, 2 mM L-glutamine, 100 units/ml Penicillin and 100 μg/ml streptomycin) at 37° C. in a humidified atmosphere of 6% CO2. Before cells approach confluence they were removed from flasks by trypsinisation. Prior to use in an assay, the cells were transferred to 96-well microtiter plates at a concentration of 1×10^4 cells/well in 100 μl volumes of sDMEM and allowed to attach for 24 h.
For incubation with murine fibroblasts, the test item was diluted in PBS/3% DMSO (detailed concentrations see in results).
Culture medium (Dulbecco's Modified Eagle Medium(DMEM), GlutaMAX (Gibco Ref 21885-025), 10% Fetal Bovine Serum (FBS) (Gibco Ref 10270-106), 1001U/ml Penicillin and 100 μg/mL Streptomycin (Gibco Ref 15140-122)) was removed from the wells and murine fibroblasts were washed with PBS. Afterwards 100 μL of PBS/3% DMSO containing the test item was added and target cells were incubated for 1 h at 37° C. with 6% CO2.
For each test item the microtiter plates were prepared according to Table 6. “UVA plates” were exposed to approx. 5 J/cm^2 UVA light, the “Dark plates” were kept in the dark and served as cytotoxicity control. Plates with chlorpromazine hydrochloride served as positive control. UV flux was measured with a UV-meter (Dr. Gröbel RM21).
Following UV irradiation, the test item was removed from the wells (one washing step with PBS) and replaced with sDMEM. Target cells were then incubated overnight at 37° C. in 6% CO2.
Each plate contained wells with cells and solvent but without test item which were either not incubated with Neutral Red solution (0% standard—S1) or were stained with Neutral Red (100% standard—S2) for calculation of the standard cell viability curve. Wells labeled with U01-U08 contained the different test item concentrations. […]

Cn1ncc2c(N3CCc4cc(N5CCNCC5)ccc4C3)ccnc21 [Example 3, 2-(1-methylpyrazolo[3,4-b]pyridin-4-yl)-6-piperazin-1-yl-3,4-dihydro-1H-isoquinoline]
Phototoxicity factor: 1
IC50: > 100 µg/mL

CO[C@@H]1CN(c2ccc3c(c2)[C@@H](C)CN(c2ccnc4c2cnn4C)C3)C[C@H]1N [Example 20, (3R,4R)-4-methoxy-1-[(4R)-4-methyl-2-(1-methylpyrazolo[3,4-b]pyridin-4-yl)-3,4-dihydro-1H-isoquinolin-6-yl]pyrrolidin-3-amine]
Phototoxicity factor: 1
IC50: > 100 µg/mL

CO[C@@H]1CN(c2ccc3c(n2)[C@@H](C)CN(c2cc(C)nc4c2cnn4C)C3)C[C@H]1N [Example 63, (3R,4R)-4-methoxy-1-[(8S)-6-(1,6-dimethylpyrazolo[3,4-b]pyridin-4-yl)-8-methyl-7,8-dihydro-5H-1,6-naphthyridin-2-yl]pyrrolidin-3-amine]
Phototoxicity factor: 1
IC50: > 100 µg/mL

— patent US20240317735A1, “HYDROISOQUINOLINE OR HYDRONAPHTHYRIDINE COMPOUNDS FOR THE TREATMENT OF AUTOIMMUNE DISEASE” (Hoffmann-La Roche Inc., priority 2020, published 2024)
